Assay results: patent US20250345387A1, “CORONAVIRUS THERAPEUTICS AND TREATMENT METHODS” (priority 2020, published 2025)
Entries after “also recorded” stand apart in the source; their conditions may differ. Where no end group is shown, it is not given here.

Columns and labels:
[1] = system: MAPK (Erk2); assay: MAPK phosphorylation ELISA in HUVEC; assay type: cell-based, human; conditions: HUVEC stimulation
Procedure: HUVECs were cultured as above. Lyates were prepared in (1 mM EDTA, 0.5% Triton X-100, 6M urea, 5 mM NaF, 100 uM PMSF, 25 mM sodium pyrophosphate, 1 mM sodium orthovanadate, pH 7.2-7.4, 1× cOmplete™ mini EDTA-free protease inhibitor). BCA protein concentration kit was used to measure protein concentration of each lysate as per manufacturer's instructions (Thermo Scientific). Samples were subjected to ELISAs that measured phosphorylated MAPK and total MAPK levels according to the manufacturer's protocol (R&D Systems). 20 μg or 10 μg of protein from each sample was loaded in duplicate for phosphorylated MAPK and total MAPK readings respectively. Phosphorylated MAPK:total MAPK ratios were determined for each sample. The level of MAPK phosphorylation for all treatment groups were then normalized to that of the no treatment group (NT, EBM only) in each experiment.

[2] = system: histamine-induced vascular leakage; assay: Cutaneous histamine challenge, Evans blue dye extravasation; assay type: in vivo, male FVB mice; conditions: for vascular leakage (extravassation of Evans blue dye) vs vehicle treated mice: prophylactic IP dose one hour prior to cutaneous histamine challenge
From the text: 10-week old male FVB mice were purchased from Jackson Laboratories. Mice were housed in a Vivarium on a standard light:dark cycle and were given free access to food and water. On day 0 mice were anesthetized with isoflurane and the entire dorsal area was shaved with an electric shaver. Residual hair was removed via application of depilatory cream. Residual cream was removed with sterile gauze and water. […] Immediately following Evans blue dye administration, and while still under anesthesia, a single PBS injection (dorsal, intradermal, 50 ul) and three equally spaced histamine injections (dorsal, intradermal, 1.25 ug contained in 50 ul) were applied. Once the intradermal injections were complete, the mice were removed from anesthesia and were placed back into their housing cages for 25 minutes.
Cardiac transperfusion After 25 minutes of exposure to histamine the mice were placed under anesthesia with an appropriate volume of 2.5% avertin (100 ul/10 g body weight via intraperitoneal injection). Once a deep plane of anesthesia was produced the mice were place and secured in a supine position, the chest was surgically opened, the heart was exposed and a catheter terminating in a 23 gauge needle was inserted into the left ventricle. Once the catheter was securely in place, a cut in the right atria was performed and 25 ml of cold PBS was delivered, via the catheter at 100 mmHg to flush out all intravascular Evans blue dye. Once a mouse was effectively perfused the dorsal skin was surgically removed. Four, 12 mm skin biopsies were collected (1PBS, 3 histamine) for each mouse using a standardized skin punch. In all cases, the biopsy that received PBS served as a baseline control for that individual mouse.
Quantification of Evans blue dye extravassation Skin biopsies were placed in labelled tubes and placed in a 60 degree Celsius oven for 16 hrs to removed all moisture. […] An Evans blue dye standard curve encompassing high and low experimental data points was constructed such that the amount of Evans blue dye extravassation (ug/g of skin) could be calculated.

[3] = system: Influenza A virus HKx31 (H3N2); conditions: 100 ng/mouse/day; Sugiyama M G et al, 2015; cited from earlier work
[4] = system: Influenza A virus HKx31 (H3N2); assay type: in vivo, C57BL/6J mice; conditions: for overall survival of infected mice: ip
[5] = target: T1, Tie2 receptor (Homo sapiens, UniProt Q02763); assay: Tie2 phosphorylation ELISA in HUVEC; assay type: cell-based; conditions: 15 minute stimulation
T1 construct: endogenous in cells; host or cells: HUVEC; HMVEC-tert (human dermal microvascular endothelial cells immortalized with telomerase)
Procedure: Human umbilical vein endothelial cells (HUVECs) were seeded on 100 mm tissue culture plates in complete endothelial basal media (EBM)(Lonza) supplemented with ‘EGM single quots’ (Lonza) in 20% O2, 5% CO2 and 37° C. humidified chamber according to manufacturer's recommendations. […] Following the 15 minute stimulation, cells were placed on ice and washed twice in ice cold PBS. Cell lysates were prepared for use in 1C12 lysis buffer (1% NP-40, 20 mM Tris (pH 8.0), 137 mM NaCl, 10% Glycerol, 2 mM EDTA, 1 mM activated sodium orthovanadate). BCA protein concentration kit was used to measure protein concentration of each lysate as per manufacturer's instructions (Thermo Scientific). Samples were subjected to ELISAs that measured phosphorylated Tie2 and total Tie2 levels according to the manufacturers protocol. 20 μg or 5 μg of protein from each sample was loaded in duplicate for phosphorylated Tie2 and total Tie2 readings respectively. Phosphorylated Tie2:total Tie2 ratios were determined for each sample. The level of Tie2 phosphorylation for all treatment groups were then normalized to that of the no treatment group (NT, complete EBM only) in each experiment.

[6] = system: HUVEC; assay: Thrombin- and TNF-α-induced HUVEC destabilisation, impedance (xCELLigence RTCA); assay type: cell-based, human; conditions: for total AUC normalised to vehicle control treatment: equivalent to CI for vehicle control cells
[7] = system: HUVEC; assay: COVID-19 patient serum induced HUVEC integrity destabilization, impedance (xCELLigence RTCA); assay type: cell-based, human
[8] = target: T2, recombinant human IgG Fc (Homo sapiens, UniProt P01857); assay: Tryptophan fluorescence spectroscopy binding to human IgG Fc (negative control); conditions: increasing ligand concentrations
T2 construct: purchased R&D Systems
From the text: Ligand and receptor interaction. […] Data was compiled using SoftMax and analyzed using Prism.

[9] = target: T3, Tie2 receptor (Mus musculus, UniProt Q02858); assay: Tie2 phosphorylation ELISA in primary mouse lung microvascular endothelial cells (MLMVEC); assay type: cell-based
T3 construct: host or cells: primary mouse lung microvascular endothelial cells (MLMVEC)
Procedure: Primary mouse lung endothelial cells (Cell Biologics) were seeded on 100 mm tissue culture plates in complete endothelial basal media (EBM)(Lonza) supplemented with ‘EGM single quots’ (Lonza). […] Following the 15 minute stimulation, cells were placed on ice and washed twice in ice cold PBS. Cell lysates were prepared for use in IC12 lysis buffer (1% NP-40, 20 mM Tris (pH 8.0), 137 mM NaCl, 10% Glycerol, 2 mM EDTA, 1 mM activated sodium orthovanadate). BCA protein concentration kit was used to measure protein concentration of each lysate as per manufacturer's instructions (Thermo Scientific). Samples were subjected to ELISAs that measured phosphorylated Tie2 and total Tie2 levels according to the manufacturer's protocol (mouse Tie2, R&D Systems). 50 μg or 5 μg of protein from each sample was loaded in triplicate for phosphorylated Tie2 and total Tie2 readings respectively. Phosphorylated Tie2:total Tie2 ratios were determined for each sample. The level of Tie2 phosphorylation for all treatment groups was then normalized to that of the no treatment group (NT, complete EBM only) in each experiment.

[10] = Pharmacokinetic analysis after intravenous bolus in rats (plasma ELISA); assay type: in vivo, male Sprague Dawley rats
Procedure: Indicated amounts (ug/kg) of parental Vasculotide and MPA-Br were intravenously administered via bolus injection to male Sprague Dawley rats. […] The 120 ug/kg dose provided the greatest sensitivity of detection in these studies and as such, PK measures presented pertain to this particular dose level. […] MPA-Br PK was evaluated in a multi-dose (MD) intravenous setting at 120 ug/kg once every 24 hours for three consecutive days.

[11] = system: Tie2 receptor; assay: Tie2 phosphorylation ELISA in primary cynomolgus monkey glomerular endothelial cells; assay type: cell-based; conditions: positive control
Procedure: Primary cynomolgus monkey glomerular endothelial cells (Cell Biologics) were cultured according to details provided above for HMVEC^tert. Tie2 activation studies performed on primary cynomolgus monkey glomerular endothelial cells were performed according to approaches detailed above for the rat primary glomerular endothelial cell studies.

[12] = target: T4, Tie2 receptor (Rattus norvegicus, UniProt A0A8I5ZW61); assay: Tie2 phosphorylation ELISA in primary rat glomerular endothelial cells; assay type: cell-based; conditions: positive control
T4 construct: host or cells: primary rat glomerular endothelial cells
Procedure: Rat primary glomerular endothelial cells (Cell Biologics) were grown in Complete rat endothelial cell medium/w kit (Cell Biologics) in 20% O2, 5% CO2 and 37° C. humidified chamber and split 1:3 once reaching 80-90% confluency. To examine the activation of Tie2 by MPA-Br in rat kidney glomerular endothelial cells, 95-100% confluent cells were stimulated with indicated concentrations of the test agent in serum-containing media for 15 minutes. Human Ang-1 (R&D Systems) was used as positive control. Cell lysates were collected using lysis buffer IC12 (detailed above) recommended in Human phospho-Tie-2 ELISA kit (R&D Systems), tyrosine-phosphorylated Tie2 and total Tie2 were measured using ELISA (Human phospho-Tie2 and total-Tie2 ELISA kits, R&D Systems) with substitution of capture antibody validated for rat Tie2. Mouse anti-Tie2 antibody (BD Pharmingen™) and rabbit TEK polyclonal antibody (MyBioSource) were used as capture antibody in pTie2 and total Tie2 ELISA, respectively. The level of Tie2 phosphorylation for all treatment groups was then normalized to that of the no treatment group (NT, complete rat endothelial cell medium) in each experiment.

[13] = system: Tie2 receptor; assay: Tie2 phosphorylation ELISA in primary canine aortic endothelial cells; assay type: cell-based; conditions: positive control
Procedure: Canine primary aortic endothelial cells (Cell Biologics) were grown in Complete canine endothelial cell medium/w kit (Cell Biologics) in 20% O2, 5% CO2 and 37° C. humidified chamber and split 1:3 once reaching 80-90% confluency. Tie2 activation studies performed on primary cynomolgus monkey glomerular endothelial cells were performed according to approaches detailed above for the rat primary glomerular endothelial cell studies.

[14] = 120 ug/kg intravenous bolus, parental Vasculotide vs MPA-Br
[15] = day 6, MPA-Br 200 ng/day vs parental Vasculotide 500 ng

T1 sequence (Q02763 23-1124): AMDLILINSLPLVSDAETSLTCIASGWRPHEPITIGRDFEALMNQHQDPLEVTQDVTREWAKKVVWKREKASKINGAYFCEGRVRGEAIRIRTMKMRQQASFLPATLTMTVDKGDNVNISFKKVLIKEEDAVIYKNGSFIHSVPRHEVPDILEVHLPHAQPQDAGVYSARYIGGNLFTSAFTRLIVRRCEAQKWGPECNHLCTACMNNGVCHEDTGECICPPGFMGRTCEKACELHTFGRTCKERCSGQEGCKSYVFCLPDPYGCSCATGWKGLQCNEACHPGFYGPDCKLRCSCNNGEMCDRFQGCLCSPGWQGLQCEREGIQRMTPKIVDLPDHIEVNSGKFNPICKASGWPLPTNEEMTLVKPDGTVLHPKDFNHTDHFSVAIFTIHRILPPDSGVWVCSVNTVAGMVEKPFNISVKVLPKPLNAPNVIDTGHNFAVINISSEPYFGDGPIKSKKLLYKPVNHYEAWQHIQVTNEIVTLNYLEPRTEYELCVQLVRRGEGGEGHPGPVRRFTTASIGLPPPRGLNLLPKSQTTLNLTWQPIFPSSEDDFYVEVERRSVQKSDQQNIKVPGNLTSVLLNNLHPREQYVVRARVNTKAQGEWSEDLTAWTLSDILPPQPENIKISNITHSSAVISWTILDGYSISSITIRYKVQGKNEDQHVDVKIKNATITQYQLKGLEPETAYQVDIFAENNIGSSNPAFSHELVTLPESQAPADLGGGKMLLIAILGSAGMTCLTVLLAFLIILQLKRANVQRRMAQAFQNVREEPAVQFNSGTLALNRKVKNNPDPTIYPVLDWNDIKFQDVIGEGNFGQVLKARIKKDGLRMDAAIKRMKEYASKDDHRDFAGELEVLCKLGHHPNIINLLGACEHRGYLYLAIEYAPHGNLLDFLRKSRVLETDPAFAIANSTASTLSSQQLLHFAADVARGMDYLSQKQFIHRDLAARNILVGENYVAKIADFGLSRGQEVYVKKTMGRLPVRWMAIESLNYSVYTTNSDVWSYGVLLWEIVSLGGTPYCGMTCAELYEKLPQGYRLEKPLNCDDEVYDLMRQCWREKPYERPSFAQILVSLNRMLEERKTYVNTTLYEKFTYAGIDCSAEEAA
T4 sequence (A0A8I5ZW61 20-1121): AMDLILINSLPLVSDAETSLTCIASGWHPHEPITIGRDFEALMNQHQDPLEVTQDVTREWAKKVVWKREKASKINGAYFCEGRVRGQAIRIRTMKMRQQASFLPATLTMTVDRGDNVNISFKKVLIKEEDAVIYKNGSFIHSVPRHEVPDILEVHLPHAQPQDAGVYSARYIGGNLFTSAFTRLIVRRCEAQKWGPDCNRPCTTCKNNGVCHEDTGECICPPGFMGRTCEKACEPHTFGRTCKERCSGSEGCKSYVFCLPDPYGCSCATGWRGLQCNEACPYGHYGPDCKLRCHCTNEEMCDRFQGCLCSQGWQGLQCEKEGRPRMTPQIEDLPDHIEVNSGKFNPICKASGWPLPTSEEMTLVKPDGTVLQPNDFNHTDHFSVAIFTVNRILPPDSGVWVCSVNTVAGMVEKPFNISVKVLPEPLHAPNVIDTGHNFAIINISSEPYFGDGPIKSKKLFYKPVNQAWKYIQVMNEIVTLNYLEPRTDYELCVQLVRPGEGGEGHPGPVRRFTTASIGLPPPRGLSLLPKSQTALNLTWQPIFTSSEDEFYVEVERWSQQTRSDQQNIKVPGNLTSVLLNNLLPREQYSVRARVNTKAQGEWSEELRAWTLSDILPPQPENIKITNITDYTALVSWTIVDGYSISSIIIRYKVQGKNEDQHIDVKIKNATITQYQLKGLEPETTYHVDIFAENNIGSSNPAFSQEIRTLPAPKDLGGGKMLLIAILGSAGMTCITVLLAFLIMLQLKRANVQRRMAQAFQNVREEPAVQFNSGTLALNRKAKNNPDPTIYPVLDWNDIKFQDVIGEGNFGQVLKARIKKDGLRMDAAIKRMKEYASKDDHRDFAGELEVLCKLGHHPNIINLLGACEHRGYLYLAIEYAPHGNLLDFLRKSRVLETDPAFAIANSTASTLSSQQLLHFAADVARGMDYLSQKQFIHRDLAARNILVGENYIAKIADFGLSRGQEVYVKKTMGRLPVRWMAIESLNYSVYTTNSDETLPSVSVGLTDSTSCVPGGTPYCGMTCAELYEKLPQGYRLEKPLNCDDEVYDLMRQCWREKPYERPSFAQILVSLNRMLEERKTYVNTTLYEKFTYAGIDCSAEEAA
T3 sequence (Q02858 23-1122): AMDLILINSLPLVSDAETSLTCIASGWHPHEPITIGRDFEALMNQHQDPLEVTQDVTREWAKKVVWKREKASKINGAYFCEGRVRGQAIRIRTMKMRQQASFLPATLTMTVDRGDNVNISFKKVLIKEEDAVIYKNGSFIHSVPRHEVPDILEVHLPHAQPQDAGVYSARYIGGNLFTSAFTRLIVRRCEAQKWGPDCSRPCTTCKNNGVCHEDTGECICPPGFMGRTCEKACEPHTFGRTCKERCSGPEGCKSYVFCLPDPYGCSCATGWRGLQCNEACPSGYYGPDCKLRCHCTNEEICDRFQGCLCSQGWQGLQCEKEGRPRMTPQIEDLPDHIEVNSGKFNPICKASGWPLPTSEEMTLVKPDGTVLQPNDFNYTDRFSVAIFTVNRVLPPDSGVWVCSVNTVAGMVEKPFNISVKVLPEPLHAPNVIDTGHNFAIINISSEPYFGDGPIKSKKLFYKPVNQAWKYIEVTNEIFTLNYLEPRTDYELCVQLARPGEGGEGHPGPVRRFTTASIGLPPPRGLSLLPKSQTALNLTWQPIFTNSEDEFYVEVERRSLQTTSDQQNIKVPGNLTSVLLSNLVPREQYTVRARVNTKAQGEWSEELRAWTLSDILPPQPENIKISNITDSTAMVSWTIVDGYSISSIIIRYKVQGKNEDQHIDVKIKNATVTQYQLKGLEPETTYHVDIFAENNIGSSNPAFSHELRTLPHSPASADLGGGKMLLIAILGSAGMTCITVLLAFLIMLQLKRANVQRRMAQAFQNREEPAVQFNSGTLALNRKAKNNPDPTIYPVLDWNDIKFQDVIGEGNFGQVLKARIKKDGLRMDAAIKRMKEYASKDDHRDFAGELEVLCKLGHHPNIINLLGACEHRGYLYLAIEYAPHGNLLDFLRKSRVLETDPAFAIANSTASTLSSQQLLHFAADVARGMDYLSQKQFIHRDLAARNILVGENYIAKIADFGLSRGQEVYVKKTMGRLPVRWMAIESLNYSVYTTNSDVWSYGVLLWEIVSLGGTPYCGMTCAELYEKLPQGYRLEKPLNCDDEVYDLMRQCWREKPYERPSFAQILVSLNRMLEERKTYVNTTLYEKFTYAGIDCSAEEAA

Q: For “parental Vasculotide: 10 kDa 4-armed polyethylene glycol with Tie2 binding peptides (CHHHRHSF) attached via maleimide; mimics Ang1 [reference compound]”, which “activation of MAPK (phosphorylated MAPK:total MAPK)” value [1] is on record?
A: Its value is “downstream activation of MAPK”.

Q: What about the “reduction of histamine-induced vascular leakage compared with MPA-Br” value ([2]; parental Vasculotide 500 ng/mouse vs MPA-Br at equal dose or 125 ng/mouse) of the same molecule?
A: The value was “performed less well”.

Q: And the “vascular leakage (extravassation of Evans blue dye) vs vehicle treated mice” value [2]?
A: Its value is “significantly less vascular leakage”.

Q: What about the “survival following infection with X31 influenza” value [3] of the same molecule?
A: The value was “ineffective at enhancing survival”.

Q: And the activity score ([4]; mouse, in vivo)?
A: The activity score was “significantly improved”.

Q: And the “lung oxygenation (SpO2)” value ([4]; mouse, in vivo)?
A: Its value is “significantly improved”.

Q: And the “thermal regulation (body temperature)” value ([4]; mouse, in vivo)?
A: Its value is “significantly improved”.

Q: What about the “overall survival of infected mice” value ([4]; mouse, in vivo) of the same molecule?
A: Its value is “significantly improved overall survival”.

Q: What does the source list for “MPA-Br: T7 peptide linked via 3-mercaptopropionic acid to a bromoacetimide-activated 10K PEG tetramer through a linear sulfane moiety (HHHRHSF; not fully specified (N-terminus); also: linked via 3-mercaptopropionic acid to bromoacetimide-activated 10K PEG tetramer (sulfane), site not given here)”?
A: activation of MAPK (phosphorylated MAPK:total MAPK) [1]: downstream activation of MAPK; doses significantly activating Tie2 (pTie2/total Tie2 vs no treatment) [5]: 10-100 ng; vascular leakage (extravassation of Evans blue dye) vs vehicle treated mice [2]: significantly less vascular leakage; normalized CI overtime compared to untreated HUVEC ([6]; TNF-a challenge (0.5 ng/mL), MPA-Br 5 ng/mL): significant increase in normalized CI; total AUC normalised to vehicle control treatment ([6]; TNF-a challenged cells, MPA-Br 5 ng/mL): statistically significant increase in normalized CI; normalized CI overtime compared to untreated HUVEC ([6]; thrombin challenge (0.25 ng/mL), MPA-Br 0.5 to 5 ng/mL): significant increase in normalized CI; total AUC normalised to vehicle control treatment ([6]; thrombin challenged cells, MPA-Br 0.5 to 5 ng/mL): statistically significant increase in normalized CI; CI over time after COVID-19 serum challenge [7]: restoration of CI loss; AUC normalised to vehicle control ([7]; COVID-19 patient sample IgM, 0.5 to 5 ng/mL MPA-Br): statistically significant increase in normalized CI; cell index difference between cells incubated with serum+AV-001 and serum+vehicle control ([7]; COVID-19 serum (IgG8, IgM5, IgM6) compared to HD): Significant differences; total AUC normalised to vehicle control treatment ([7]; COVID-19 serum IgG8 and IgM6 (FIG. 10D-E), both AV-001 doses): statistically significant increase in CI; total AUC normalised to vehicle control treatment ([7]; serum HD1, high dose 5 ng/mL): statistically significant increase in normalised cell impedance; binding to recombinant human IgG Fc (fluorescence intensity) [8]: no dose dependent increase in fluorescence intensity; also recorded: No saturation of binding; fold lower concentration for statistically significant Tie2 activation vs parental Vasculotide [9]: 10 fold; drug accumulation, multi-dose (MD) PK vs single dose ([10]; 120 ug/kg IV once every 24 hours for three consecutive days): no drug accumulation; clearance rate [10, 14]: similar; volume of distribution [10, 14]: similar; arterial oxygenation [4, 15]: superiority to parental Vasculotide; protection from wasting (fraction of initial body weight) [4, 15]: superiority to parental Vasculotide; activity score ([4]; mouse, in vivo): significantly improved; all study endpoints compared to parental Vasculotide ([4]; mouse, in vivo): performed equal, or better than parental Vasculotide; lung oxygenation (SpO2) ([4]; mouse, in vivo): significantly improved; thermal regulation (body temperature) ([4]; mouse, in vivo): significantly improved; overall survival of infected mice ([4]; mouse, in vivo): significantly improved overall survival

B1: human recombinant Ang1: Human recombinant angiopoietin 1, positive control for Tie2 and MAPK activation (protein)
chain: SNQRRSPENSGRRYNRIQHGQCAYTFILPEHDGNCRESTTDQYNTNALQRDAPHVEPDFSSQKLQHLEHVMENYTQWLQKLENYIVENMKSEMAQIQQNAVQNHTATMLEIGTSLLSQTAEQTRKLTDVETQVLNQTSRLEIQLLENSLSTYKLEKQLLQQTNEILKIHEKNSLLEHKILEMEGKHKEELDTLKEEKENLQGLVTRQTYIIQELEKQLNRATTNNSVLQKQQLELMDTVHNLVNLCTKEGVLLKGGKREEEKPFRDCADVYQAGFNKSGIYTIYINNMPEPKKVFCNMDVNGGGWTVIQHREDGSLDFQRGWKEYKMGFGNPSGEYWLGNEFIFAITSQRQYMLRIELMDWEGNRAYSQYDRFHIGNEKQNYRLYLKGHTGTAGKQSSLILHGADFSTKDADNDNCMCKCALMLTGGWWFDACGPSNLNGMFYTAGQNHGKLNGIKWHYFKGPSYSLRSTTMMIRPLDF
Q: With B1 as the molecule, how does the “Tie2 phosphorylation compared to no treatment (NT)” value [11] read?
A: The value was “significant increase in baseline Tie2 phosphorylation”.

Q: And the “Tie2 phosphorylation compared to no treatment (NT)” value [12]?
A: The value was “significant increase in baseline Tie2 phosphorylation”.

Q: And the “Tie2 phosphorylation compared to no treatment (NT)” value [13]?
A: Its value is “significant increase in baseline Tie2 phosphorylation”.
